Usually logD stands for lipophilicity at a set pH, counting ionised and neutral species. Lower therefore signals lower lipophilicity. The Ki is the equilibrium dissociation constant of an inhibitor or competing ligand from its target. A high value points to lower affinity. The term EC50 denotes the midpoint of the concentration-response curve.

The results in this text go back to ChEMBL document CHEMBL1287708, “Synthesis, biological evaluation and radiolabelling by 18F-fluoroarylation of a dopamine D3-selective ligand as prospective imaging probe for PET” (Bioorg Med Chem Lett, 2010).

Each structure is given as a SMILES string.

Data set [1] concerns brain ventricle (Rattus norvegicus). The data set is described as follows: Drug uptake in Sprague-Dawley rat brain ventricle at 8.5 MBq, iv measured after 45 mins by autoradiography. The note with it: in vivo, 0.75 h.
Data set [2] deals with Cortex. Nature of the data set: Drug uptake in Sprague-Dawley rat cortex at 9.3 MBq, iv measured after 45 mins by autoradiography in presence of 1 mg/kg BP897. The format is ADME, organism-based. Further details: dose 1 mg/kg, route intravenous. The note with it: in vivo, 0.75 h.
The test system of data set [3] is Striatum. Nature of the data set: Drug uptake in Sprague-Dawley rat striatum at 8.5 MBq, iv measured after 45 mins by autoradiography. The note with it: in vivo, 0.75 h. The format is ADME, organism-based.
The test system of data set [4] is Cortex. The data set is described as follows: Drug uptake in Sprague-Dawley rat cortex at 8.5 MBq, iv measured after 45 mins by autoradiography. The format is ADME, organism-based. Particulars: in vivo, 0.75 h.
The nature of data set [5]: Lipophilicity, log D of the compound in n-octanol-phosphate buffered saline at pH 7.4. The format is physicochemical.
Data set [6] concerns brain ventricle (Rattus norvegicus). Nature of the data set: Drug uptake in Sprague-Dawley rat brain ventricle at 9.3 MBq, iv measured after 45 mins by autoradiography in presence of 1 mg/kg BP897. Particulars: in vivo, 0.75 h.
Data set [7] has as its system Striatum. Nature of the data set: Drug uptake in Sprague-Dawley rat striatum at 9.3 MBq, iv measured after 45 mins by autoradiography in presence of 1 mg/kg BP897. Particulars: in vivo, 0.75 h. The format is ADME, organism-based. Details: dose 1 mg/kg, route intravenous.
Data set [8] can be described thus: Displacement of [3H]prazosin from alpha1 adrenoceptor in porcine cerebral cortex membranes. The format is cell membranes, Sus scrofa, Membrane.
The target in data set [9] is T1, D(4) dopamine receptor (Homo sapiens, UniProt P21917).
T1 sequence (P21917 whole entry): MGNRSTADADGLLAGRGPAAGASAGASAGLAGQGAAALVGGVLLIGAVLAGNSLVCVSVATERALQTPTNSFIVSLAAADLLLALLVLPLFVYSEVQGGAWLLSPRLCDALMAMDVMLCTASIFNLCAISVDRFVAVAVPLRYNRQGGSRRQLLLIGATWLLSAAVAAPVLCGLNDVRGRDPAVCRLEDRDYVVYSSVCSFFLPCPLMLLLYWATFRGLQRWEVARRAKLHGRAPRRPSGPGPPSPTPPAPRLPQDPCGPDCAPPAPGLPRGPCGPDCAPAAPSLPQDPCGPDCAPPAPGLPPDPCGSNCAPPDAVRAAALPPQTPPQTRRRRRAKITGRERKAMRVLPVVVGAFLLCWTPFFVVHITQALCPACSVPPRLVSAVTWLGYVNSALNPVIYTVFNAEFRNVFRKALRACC
Nature of the data set: Displacement of [3H]spiperone from human dopamine D4.4 receptor expressed in CHO cells. The format is cell-based. In general terms: Loss of bound radioactivity is the signal in a displacement assay; it reports binding, not function.

In data set [10] the target is T2, D(2) dopamine receptor (Homo sapiens, UniProt P14416). Nature of the data set: Agonist activity at human dopamine receptor D2long expressed in CHO10001 cells assessed as stimulation of incorporation [3H]-thymidine incorporation. The format is functional, cell-based. (In general: Incorporation of labelled thymidine or its analogues reports DNA synthesis.)
Data set [11] can be described thus: Displacement of [3H][…] from 5-HT1A receptor in porcine cerebral cortex membranes. The format is cell membranes, Sus scrofa, Membrane.
In data set [12] the target is T2, D(2) dopamine receptor. Nature of the data set: Displacement of [3H]spiperone from human dopamine D2long receptor expressed in CHO cells. The format is cell-based.
The target of data set [13] is T3, D(3) dopamine receptor (Homo sapiens, UniProt P35462). The data set is described as follows: biochemical.
Description: Displacement of [3H]spiperone from human dopamine D3 receptor expressed in CHO cells
For data set [14], the target named is 5-hydroxytryptamine receptor 2A (Sus scrofa, UniProt P50129). Nature of the data set: Displacement of [3H]ketanserin from 5-HT2 receptor in porcine cerebral cortex membranes. The format is cell membranes, Membrane.
In data set [15] the target is D(1A) dopamine receptor (Sus scrofa, UniProt P50130). Nature of the data set: Displacement of [3H][…] from dopamine D1 receptor in porcine cerebral cortex membranes. The format is cell membranes, Membrane.
The target of data set [16] is T3, D(3) dopamine receptor. The data set is described as follows: Agonist activity at human dopamine D3 receptor expressed in CHO dhfr-negative cells assessed as stimulation of [3H]-thymidine incorporation. The format is functional, cell-based.

T3 sequence (P35462 whole entry): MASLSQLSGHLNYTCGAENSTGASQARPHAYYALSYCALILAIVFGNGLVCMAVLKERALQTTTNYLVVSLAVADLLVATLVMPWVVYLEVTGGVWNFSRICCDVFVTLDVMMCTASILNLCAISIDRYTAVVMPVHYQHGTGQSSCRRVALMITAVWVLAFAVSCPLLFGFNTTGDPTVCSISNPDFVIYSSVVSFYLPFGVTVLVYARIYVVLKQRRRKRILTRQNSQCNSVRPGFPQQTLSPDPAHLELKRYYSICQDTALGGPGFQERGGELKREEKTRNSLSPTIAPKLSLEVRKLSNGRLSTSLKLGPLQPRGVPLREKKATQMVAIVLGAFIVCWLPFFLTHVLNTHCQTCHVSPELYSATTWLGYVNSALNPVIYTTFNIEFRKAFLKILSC
5-hydroxytryptamine receptor 2A, sequence (P50129 whole entry): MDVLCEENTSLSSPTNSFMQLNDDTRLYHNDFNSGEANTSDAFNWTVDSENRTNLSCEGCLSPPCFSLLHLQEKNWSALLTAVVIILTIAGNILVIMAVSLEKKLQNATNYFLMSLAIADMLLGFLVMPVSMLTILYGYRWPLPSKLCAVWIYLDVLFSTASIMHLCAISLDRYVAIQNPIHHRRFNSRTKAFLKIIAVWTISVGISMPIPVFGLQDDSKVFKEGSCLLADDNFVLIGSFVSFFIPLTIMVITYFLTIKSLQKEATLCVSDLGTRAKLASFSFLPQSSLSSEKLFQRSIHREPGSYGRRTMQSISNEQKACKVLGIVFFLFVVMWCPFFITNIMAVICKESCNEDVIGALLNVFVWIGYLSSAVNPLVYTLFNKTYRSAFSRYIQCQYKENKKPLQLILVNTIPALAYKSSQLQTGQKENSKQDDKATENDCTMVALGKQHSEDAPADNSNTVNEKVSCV
D(1A) dopamine receptor, sequence (P50130 whole entry): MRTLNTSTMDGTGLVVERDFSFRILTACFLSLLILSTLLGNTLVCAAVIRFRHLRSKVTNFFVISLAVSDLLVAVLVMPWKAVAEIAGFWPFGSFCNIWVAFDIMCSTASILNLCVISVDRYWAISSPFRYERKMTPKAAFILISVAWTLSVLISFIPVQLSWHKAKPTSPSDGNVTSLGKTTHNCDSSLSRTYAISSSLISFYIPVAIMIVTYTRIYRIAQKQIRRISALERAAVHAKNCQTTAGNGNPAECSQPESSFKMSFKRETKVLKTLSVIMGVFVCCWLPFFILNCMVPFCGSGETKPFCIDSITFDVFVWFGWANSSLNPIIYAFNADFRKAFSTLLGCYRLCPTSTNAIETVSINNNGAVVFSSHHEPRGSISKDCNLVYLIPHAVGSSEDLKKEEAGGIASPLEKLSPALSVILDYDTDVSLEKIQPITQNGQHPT
T2 sequence (P14416 whole entry): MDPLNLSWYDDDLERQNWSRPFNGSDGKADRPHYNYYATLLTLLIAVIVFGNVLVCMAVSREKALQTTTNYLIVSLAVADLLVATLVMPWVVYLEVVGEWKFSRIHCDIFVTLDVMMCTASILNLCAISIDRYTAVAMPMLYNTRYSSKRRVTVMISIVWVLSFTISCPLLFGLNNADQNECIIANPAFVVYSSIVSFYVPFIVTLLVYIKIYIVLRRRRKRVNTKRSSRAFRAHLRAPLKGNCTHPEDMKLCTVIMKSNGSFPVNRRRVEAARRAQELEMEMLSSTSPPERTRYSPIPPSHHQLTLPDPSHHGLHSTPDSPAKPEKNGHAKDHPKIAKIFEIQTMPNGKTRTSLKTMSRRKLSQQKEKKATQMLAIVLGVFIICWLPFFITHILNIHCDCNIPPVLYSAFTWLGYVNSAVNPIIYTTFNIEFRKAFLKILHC

As for `COc1ccccc1N1CCN(CCCCNC(=O)/C=C/c2ccc([18F])cc2)CC1`, the Drug uptake came to 38717 cpm/mm2 in [1]; 3120 cpm/mm2 in [2]; 28851 cpm/mm2 in data set [3]; 32293 cpm/mm2 in data set [4]; 18275 cpm/mm2 in data set [6]; 3086 cpm/mm2 in data set [7]. In [5], the logD turned out to be 2.07.
As to `COc1ccccc1N1CCN(CCCCNC(=O)/C=C/c2ccc(F)cc2)CC1`, the Ki in data set [8] is 5.2 nM; in data set [9] it was 43 nM; in data set [11], 28 nM; in data set [12], 27 nM; in data set [13], 0.34 nM; in [14], 330 nM. Further, the affinity in [15] corresponds to a Ki of 1100 nM. Also, the EC50 in data set [10] was found to be 1.7 nM; in data set [16] it was 3.9 nM.
With `N#[11C]c1cccc(N2CCN(CCN3CCC(C(F)(F)F)CC3)C2=O)c1`, the Ki in [8] amounted to 8 nM; in data set [9] it was 170 nM; in data set [11], 100 nM; in data set [13] it was 0.51 nM; in data set [14], 250 nM; in data set [15], 270 nM.
